Source: patent publication US11214803B2, “Modulators of YAP1 expression” (Ionis Pharmaceuticals, Inc., priority 2019, dated 2022)
Strand notation (5' to 3'): a small letter for the sugar, then the base; units joined by * are phosphorothioate-linked, units joined directly phosphodiester-linked; [ ] holds rarer units or linkages, { } end groups; capitals alone tell only the bases. e = 2'-O-(2-methoxyethyl) (MOE); k = constrained ethyl (cEt); [5mC] = 5-methylcytosine; d = 2'-deoxy (DNA); m = 2'-O-methyl

Assays:
Format in all cases: cell-based
Yap1 mRNA [1] = test: Dose-dependent inhibition of human Yap1 in SNU-449 cells (Example 9, RTS36584); conditions: free uptake; for % UTC (Yap1 mRNA): approximately 48 hours; for IC50: linear regression on a log/linear plot
Procedure: Modified oligonucleotides described in the studies above were tested at various doses in SNU-449 cells. Cultured SNU-449 cells at a density of 10,000 cells per well were treated using free uptake with modified oligonucleotides diluted to concentrations described in the tables below. After approximately 48 hours, Yap1 mRNA levels were measured as previously described using the Human Yap1 primer-probe set RTS36584. Yap1 mRNA levels were normalized to total RNA content, as measured by RIBOGREEN®. Results are presented in the tables below as percent control of the amount of Yap1 mRNA relative to untreated control cells (% UTC). IC50s were calculated using a linear regression on a log/linear plot of the data in excel.

Yap1 mRNA [2] = test: Antisense inhibition of human Yap1 in A-431 cells by cEt gapmers, single dose (Example 3, RTS36584)
Method in brief: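 Values are % untreated control: Yap1 mRNA by quantitative RT-PCR (RTS36584), normalized to total RNA by RiboGreen. Before RNA isolation, 5,000 A-431 cells per well were exposed ~48 h to 2,000 nM 16-mer cEt gapmer, delivered without transfection reagent.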

Yap1 mRNA [3] = test: Antisense inhibition of human Yap1 in SNU-449 cells by modified oligonucleotides, single dose (Example 5, RTS36584)
Method in brief: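 Values are % of untreated control: Yap1 mRNA by quantitative RT-PCR (RTS36584), normalized to RIBOGREEN total RNA. Oligonucleotides were dosed at 2,000 nM, free uptake, in SNU-449 cells, with roughly 48 h exposure before RNA isolation.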

Yap1 mRNA [4] = test: Dose-dependent inhibition of human Yap1 in A-431 cells (Example 8, 10,000 cells per well, RTS4814); conditions: for Yap1 mRNA, % UTC: A-431 cells, 10,000 cells per well; for IC50 / % UTC (Yap1 mRNA): A-431 cells
Method in brief: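 Yap1 mRNA, normalized to RIBOGREEN total RNA and expressed as % untreated control, was read with RTS4814 about 48 h after free-uptake oligonucleotide treatment of A-431 cells at 10,000 cells/well. IC50 derived by linear regression of log/linear data.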

[5] = Yap1 mRNA, percent of untreated control, modified oligonucleotides targeting SEQ ID NO: 1 and 2, Table 47
[6] = Table 13, A-431 cells, 5,000 cells per well, free uptake, 2,000 nM modified oligonucleotide, approx. 48 hours, RTS36584, normalized to RIBOGREEN, Yap1 mRNA relative to untreated control cells
[7] = 31.3 nM, free uptake, approximately 48 hours, RTS4814
[8] = 125.0 nM, free uptake, approximately 48 hours, RTS4814
[9] = 500.0 nM, free uptake, approximately 48 hours, RTS4814
[10] = 2000.00 nM, free uptake, approximately 48 hours, RTS4814
[11] = free uptake, approximately 48 hours, RTS4814, linear regression on log/linear plot
[12] = Table 29, Yap1 mRNA as percent of untreated control, 3-10-3 cEt gapmers targeting SEQ ID NO.: 1, and 2
[13] = Table 26, Yap1 mRNA by 3-10-3 cEt gapmers targeting SEQ ID NO.: 1, and 2, percent of untreated control
[14] = Table 35, Yap1 mRNA as percent of untreated control, 3-10-3 cEt gapmers targeting SEQ ID NO: 1 and 2, single dose
[15] = Table 28, Yap1 mRNA as percent of untreated control, 3-10-3 cEt gapmers targeting SEQ ID NO.: 1, and 2

Row | Substance | % UTC (Yap1 mRNA) (Yap1 mRNA [1]; 31.3 nM) [% UTC] | % UTC (Yap1 mRNA) (Yap1 mRNA [1]; 125.0 nM) [% UTC] | % UTC (Yap1 mRNA) (Yap1 mRNA [1]; 500.0 nM) [% UTC] | % UTC (Yap1 mRNA) (Yap1 mRNA [1]; 2000.00 nM) [% UTC] | IC50 (Yap1 mRNA [1]) [nM] | Yap1 mRNA, % UTC (Yap1 mRNA [4]; [7]) [% UTC] | Yap1 mRNA, % UTC (Yap1 mRNA [4]; [8]) [% UTC] | Yap1 mRNA, % UTC (Yap1 mRNA [4]; [9]) [% UTC] | Yap1 mRNA, % UTC (Yap1 mRNA [4]; [10]) [% UTC] | IC50 (Yap1 mRNA [4]; [11]) [nM] | other results
1 | 1198202 (kG*kA*dA*dA*dT*dT*dG*dT*d[5mC]*dT*d[5mC]*eA*eT*eG*k[5mC]*k[5mC]; antisense) [compound 1198202] | 83 | 46 | 16 | 5 | 100 | – | – | – | – | – | –
2 | 1198697 (kA*kG*dT*dG*dT*dA*dT*dG*dT*d[5mC]*dA*dG*kA*eA*kG*eA) [compound 1198697] | 60 | 29 | 7 | 1 | 40 | – | – | – | – | – | –
3 | 1198355 (kA*kA*kA*dG*dT*dG*dT*dA*dT*dG*dT*d[5mC]*kA*eG*kA*eA; antisense) [compound 1198355] | 63 | 34 | 10 | 4 | 100 | – | – | – | – | – | –
4 | 1198911 (kG*kA*dG*dG*dT*dA*dT*dA*dA*d[5mC]*dT*kG*dG*kG*d[5mC]*kA; antisense) [compound 1198911] | 62 | 31 | 12 | 7 | 50 | – | – | – | – | – | –
5 | 1198959 (kA*kG*dT*dG*dT*dA*dT*dG*dT*d[5mC]*dA*kG*dA*kA*dG*kA; antisense) [compound 1198959] | 62 | 28 | 8 | 2 | 40 | – | – | – | – | – | –
6 | 1200796 (kT*kT*kA*dG*dA*mG*dT*dA*dT*dG*dT*dG*dG*k[5mC]*kA*kA; antisense) [compound 1200796] | 69 | 47 | 25 | 12 | 100 | – | – | – | – | – | –
7 | 1198656 (kG*k[5mC]*dA*d[5mC]*dT*dT*dT*dT*dA*d[5mC]*dA*dT*kT*eA*kG*eG; antisense) [compound 1198656] | 55 | 22 | 8 | 3 | < 30 | – | – | – | – | – | –
8 | 958497 (kA*kT*kA*dT*dG*dG*dA*dA*dA*dT*dT*dG*dT*k[5mC]*kT*k[5mC]) [Compound 958497] | – | – | – | – | – | – | – | – | – | – | YAP1 (% UTC) (Yap1 mRNA [2]; Table 10, A-431 cells, 5,000 cells per well, free uptake, 2,000 nM oligonucleotide, approx. 48 hours, primer probe set RTS36584, Yap1 mRNA normalized to RIBOGREEN, percent of untreated control): 1 % UTC; YAP1 (% UT) (Yap1 mRNA [3]; [5]): 20 % UT
9 | 958590 (kA*kG*kG*dT*dA*dT*dA*dA*d[5mC]*dT*dG*dG*dG*k[5mC]*kA*kA) [Compound 958590] | – | – | – | – | – | – | – | – | – | – | YAP1 (% UTC) (Yap1 mRNA [2]; [6]): 2 % UTC; YAP1 (% UT) (Yap1 mRNA [3]; Table 48, Yap1 mRNA level relative to untreated control, modified oligonucleotides targeting SEQ ID NO.: 1 and 2): 18 % UT
10 | 1074351 (antisense kA*kT*kG*d[5mC]*dT*dT*dA*dG*dT*d[5mC]*d[5mC]*dA*d[5mC]*kT*kG*kT) [compound 1074351] | – | – | – | – | – | 69 | 33 | 13 | 7 | 100 | YAP1 (% UTC) (Yap1 mRNA [2]; [12]): 7 % UTC
11 | 1074444 (kA*k[5mC]*kA*dT*dT*dT*dT*dT*dG*dG*d[5mC]*dT*dT*kG*kT*k[5mC]; antisense) [compound 1074444] | – | – | – | – | – | 49 | 21 | 7 | 4 | < 20 | YAP1 (% UTC) (Yap1 mRNA [2]; [13]): 3 % UTC
12 | 1074421 (kT*kG*kA*dT*dT*d[5mC]*dT*dT*dT*dA*dG*dA*dG*k[5mC]*k[5mC]*kA; antisense) [compound 1074421] | – | – | – | – | – | – | – | – | – | – | % UTC (Yap1 mRNA) (Yap1 mRNA [4]; 31.3 nM): 61 % UTC; % UTC (Yap1 mRNA) (Yap1 mRNA [4]; 125.0 nM): 29 % UTC; % UTC (Yap1 mRNA) (Yap1 mRNA [4]; 500.0 nM): 8 % UTC; % UTC (Yap1 mRNA) (Yap1 mRNA [4]; 2000.00 nM): 5 % UTC; IC50 (Yap1 mRNA [4]; Yap1 mRNA): 40 nM; YAP1 (% UTC) (Yap1 mRNA [2]; [14]): 3 % UTC
13 | 958500 (kT*k[5mC]*kT*dA*dT*dA*dT*dT*dA*dG*dA*dG*dT*kA*kT*kG) [Compound 958500] | – | – | – | – | – | – | – | – | – | – | YAP1 (% UTC) (Yap1 mRNA [2]; [6]): 5 % UTC; YAP1 (% UT) (Yap1 mRNA [3]; [5]): 53 % UT
14 | 1074606 (DNA kG*kG*kT*dA*dT*dA*dA*dT*d[5mC]*dA*dT*dG*dA*kT*kT*kA) [compound 1074606] | – | – | – | – | – | 31 | 10 | 6 | 4 | < 20 | YAP1 (% UTC) (Yap1 mRNA [2]; [15]): 4 % UTC
15 | 1075093 (k[5mC]*kA*kA*dA*dG*dT*dA*dA*dG*dG*dT*dA*dT*kG*kA*kG; antisense) [compound 1075093] | – | – | – | – | – | – | – | – | – | – | % UTC (Yap1 mRNA) (Yap1 mRNA [4]; 31.3 nM): 74 % UTC; % UTC (Yap1 mRNA) (Yap1 mRNA [4]; 125.0 nM): 26 % UTC; % UTC (Yap1 mRNA) (Yap1 mRNA [4]; 500.0 nM): 7 % UTC; % UTC (Yap1 mRNA) (Yap1 mRNA [4]; 2000.00 nM): 4 % UTC; IC50 (Yap1 mRNA [4]; Yap1 mRNA): 100 nM; YAP1 (% UTC) (Yap1 mRNA [2]; [14]): 3 % UTC
16 | 1074420 (kG*kA*kT*dT*d[5mC]*dT*dT*dT*dA*dG*dA*dG*d[5mC]*k[5mC]*kA*kA; antisense) [compound 1074420] | – | – | – | – | – | 38 | 8 | 3 | 2 | < 20 | YAP1 (% UTC) (Yap1 mRNA [2]; Table 34, Yap1 mRNA as percent of untreated control, 3-10-3 cEt gapmers targeting SEQ ID NO: 1 and 2, single dose): 2 % UTC
17 | 1076366 (antisense kA*kT*kT*dT*dA*d[5mC]*dA*dT*dG*dA*dG*dA*dG*kG*kA*kG) [compound 1076366] | – | – | – | – | – | 63 | 25 | 8 | 4 | 40 | YAP1 (% UTC) (Yap1 mRNA [2]; [15]): 4 % UTC
18 | 1075052 (antisense kA*kT*kA*dT*dA*dT*dA*d[5mC]*dT*dT*dG*dA*dT*k[5mC]*k[5mC]*kA) [compound 1075052] | – | – | – | – | – | 40 | 10 | 4 | 4 | < 20 | YAP1 (% UTC) (Yap1 mRNA [2]; [13]): 3 % UTC
19 | 1076396 (antisense k[5mC]*kT*kA*dT*dA*dT*dT*dT*dG*dA*dG*d[5mC]*d[5mC]*kA*kT*kG) [compound 1076396] | – | – | – | – | – | 64 | 22 | 5 | 3 | 40 | YAP1 (% UTC) (Yap1 mRNA [2]; [13]): 2 % UTC
20 | 1074638 (antisense kA*kG*kA*dT*dT*dT*dT*dG*dT*dA*dA*dT*dT*kG*kG*kG) [compound 1074638] | – | – | – | – | – | 14 | 4 | 3 | 3 | < 20 | YAP1 (% UTC) (Yap1 mRNA [2]; [15]): 2 % UTC
21 | 1074477 (kG*kT*kT*d[5mC]*d[5mC]*dG*dA*d[5mC]*dA*dA*dA*dA*d[5mC]*k[5mC]*kA*kA; antisense) [compound 1074477] | – | – | – | – | – | 77 | 48 | 20 | 12 | 100 | YAP1 (% UTC) (Yap1 mRNA [2]; Table 27, Yap1 mRNA by 3-10-3 cEt gapmers targeting SEQ ID NO.: 1, and 2, percent of untreated control): 10 % UTC
22 | 1075855 (antisense kG*kA*kT*dT*dT*dT*dT*dA*dG*dG*d[5mC]*dA*dG*kA*k[5mC]*kG) [compound 1075855] | – | – | – | – | – | 65 | 30 | 12 | 8 | 100 | YAP1 (% UTC) (Yap1 mRNA [2]; [12]): 7 % UTC
23 | 1076462 (kT*k[5mC]*kA*dG*dA*dA*dG*dG*dA*dT*dA*dT*dG*k[5mC]*kA*kG; antisense) [compound 1076462] | – | – | – | – | – | 61 | 22 | 8 | 5 | 30 | YAP1 (% UTC) (Yap1 mRNA [2]; [15]): 6 % UTC
